In PMC11203424, “Comparative Analysis of Orthosteric and Allosteric GLP-1R Agonists’ Effects on Insulin Secretion from Healthy, Diabetic, and Recovered INS-1E Pancreatic Beta Cells” (International Journal of Molecular Sciences, 2024):

How the values were obtained:
INS-1E cells [1] = test: Intracellular cAMP (GSICP) with cAMP-elevating chemicals, cAMP ELISA; assay type: cell-based, Rat; details: IBMX (10 μM), forskolin (0.5 mM), 15 mM glucose, n = 3; for intracellular cAMP (GSICP) versus allosteric agonists: up to 12 h, p > 0.05
Experimental: Figure 9 Assessing the time-dependent effects of GLP-1R agonists and cAMP-elevating chemicals (IBMX and forskolin) on GSIS and GSICP in healthy, diabetic, and recovered INS-1E cells. […] Samples were analyzed using insulin (a) and cAMP (b) ELISAs. Data expressed as mean ± SEM, n = 3. […] No symbol on the bars indicates non-significance (p > 0.05) in comparison to the no agonist control at that time point. […] The cells were maintained in sterile 10 cm^2 tissue culture Petri dishes (Greiner Bio-one, Stonehouse, UK) by changing the FSM every 3–4 days and sub-culturing when they reached 100% confluency. Diabetic and recovered INS-1E cells were generated using a previously described method with some changes. […] To produce ‘recovered’ cells, the healthy cells were cultured initially in FSM containing 40 mM glucose (diabetic condition) for 4 weeks and then in FSM containing 11 mM glucose for 4 weeks. For all the following assays, INS-1E cells (100,000 cells/well) were plated in a 96-well plate in FSM and incubated for 24 h in a humid incubator at 37 °C and 5% CO2 for the cells to attach and reach >80% confluency. Unless otherwise specified, all incubations of the cells in the following assays were carried out in a humid incubator at 37 °C and 5% CO2, and all of the ELISAs were carried out at room temperature (RT). The intracellular cAMP contents of the INS-1E cells during the treatments was measured using a cAMP ELISA. INS-1E cells (100,000 cells/well) were plated in a 96-well plate in FSM. After 24 h, the cells were pre-incubated with KRH buffer containing 0.5% fish gelatin for 1 h, washed twice with KRH and then incubated for 1 h with KRH to reduce basal cAMP levels. The cells were incubated in the KRH buffer containing various concentrations of glucose without or with different concentrations of GLP-1R agonists for the desired time. The cells were then lysed in 150 μL of 0.1M HCl by incubating at RT for 20 min, and then the cell lysates were centrifuged at 16,000× g for 10 min. A total of 12 μL of the supernatant was neutralized with 6 μL of 0.2M NaOH, diluted to 120 μL with TBS containing 0.05% Tween-20 (TBST), and used in the cAMP ELISA. For the ELISA, an anti-rabbit antibody (Genscript, Oxford, UK) diluted to 10 μg/mL in 100 mM NaHCO3 buffer (pH 9.6) was used to coat the wells (50 μL per well) of a 96-well plate overnight at 4 °C. The coated wells were washed twice with TBST and blocked with blocking buffer (TBST containing 0.5% fatty acid-free BSA) for 1 h. Samples of 50 μL were then added individually in duplicate to the antibody-coated wells. […] The reaction was stopped after 5 min with 50 μL of 2M sulfuric acid, then its optical density was read at 450 nm (OD450) using a plate reader. Using known cAMP standards, the cAMP contents of the samples were determined.

INS-1E cells [2] = test: GSIS with cAMP-elevating chemicals, insulin ELISA; assay type: cell-based, Rat; details: IBMX (10 μM), forskolin (0.5 mM), 15 mM glucose, n = 3; for augmentation of GSIS versus allosteric agonists: up to 12 h, p > 0.05
Experimental: Figure 9 Assessing the time-dependent effects of GLP-1R agonists and cAMP-elevating chemicals (IBMX and forskolin) on GSIS and GSICP in healthy, diabetic, and recovered INS-1E cells. […] Samples were analyzed using insulin (a) and cAMP (b) ELISAs. Data expressed as mean ± SEM, n = 3. […] No symbol on the bars indicates non-significance (p > 0.05) in comparison to the no agonist control at that time point. […] The cells were maintained in sterile 10 cm^2 tissue culture Petri dishes (Greiner Bio-one, Stonehouse, UK) by changing the FSM every 3–4 days and sub-culturing when they reached 100% confluency. Diabetic and recovered INS-1E cells were generated using a previously described method with some changes. […] To produce ‘recovered’ cells, the healthy cells were cultured initially in FSM containing 40 mM glucose (diabetic condition) for 4 weeks and then in FSM containing 11 mM glucose for 4 weeks. For all the following assays, INS-1E cells (100,000 cells/well) were plated in a 96-well plate in FSM and incubated for 24 h in a humid incubator at 37 °C and 5% CO2 for the cells to attach and reach >80% confluency. Unless otherwise specified, all incubations of the cells in the following assays were carried out in a humid incubator at 37 °C and 5% CO2, and all of the ELISAs were carried out at room temperature (RT). The insulin secreted by INS-1E cells during the treatments was measured using an insulin ELISA. INS-1E cells (100,000 cells/well) were plated in a 96-well plate in FSM. […] The cells were then incubated in the KRH buffer containing the specified concentration of glucose without or with the specified concentration of GLP-1R agonist(s) for the desired time. After cessation of the cell treatments, the media were clarified via centrifugation at 22,000× g for 5 min and then diluted 1 in 25 in dilution buffer (0.5% fish gelatin made in PBST [PBS with 0.05% tween-20]) and used for the insulin ELISA. The sample preparation for measuring the intracellular insulin contents of the INS-1E cells via the insulin ELISA was as follows. After cessation of the treatments, the cells were lysed in 150 μL of 0.1 M HCl. The cell lysates were centrifuged at 22,000× g for 5 min, then the supernatant was diluted 1 in 1000 in dilution buffer to use as the samples for the insulin ELISA. For the ELISA, the wells of 96-well plate inserts were coated with 50 μL of 3 μg/mL captured antibody (Novus Biologicals, Abingdon, UK) diluted in PBS for 2 h at 37 °C and then washed four times with PBST. […] The reaction was stopped by adding an equal volume of 2M sulfuric acid, then its optical density was read at 450 nm (OD450) using a plate reader. Using known insulin standards (Abcam, Cambridge, UK), the insulin concentrations of samples were determined.

[3] = system: dipeptidyl peptidase (DPP)-IV; details: cited from earlier work
Text: Type 2 diabetes (T2D), which is a multifactorial metabolic disease that is largely characterized by impaired insulin secretion and action, has become a global pandemic in recent decades. Despite the availability of various treatments, T2D post-diagnosis complications such as cardiovascular disease (CVD) remain prevalent, and finding long-term stable treatment regimes for patients can be challenging. Therefore, novel therapeutic strategies, which alleviate the pathology associated with T2D more effectively than current treatments, are highly desirable. Th ...

GLP-1R [4] = system: GLP-1R; parameters: method as in PMID 27630114, doi:10.4172/2161-1459.1000138, PMID 27138453, PMID 27100083, PMID 25449603; details: cited from earlier work
Text: The activation of the Gαs subunit of heterotrimeric G-protein raises intracellular cAMP levels via adenylyl cyclase (AC) activation, whereas the activation of the Gαq subunit increases intracellular calcium (iCa^2+) levels and extracellular signal-regulated kinase (ERK) phosphorylation, which promotes GLP-1R internalization. The internalization of GLP-1R is associate ...

GLP-1R [5] = target: T1, GLP-1R (Rattus norvegicus, UniProt P32301); test: Glucose-stimulated intracellular cAMP production (GSICP), cAMP ELISA, INS-1E cells; assay type: cell-based; details: diabetic INS-1E; 1 and 2 h, in some instances; 10 μM; n = 3
T1 construct: Rat INS-1E cells were cultured in RPMI-1640 containing 11 mM glucose; endogenous in cells; host or cells: INS-1E rat pancreatic beta cell line (healthy, diabetic and recovered states)
T1 sequence (P32301 22-463): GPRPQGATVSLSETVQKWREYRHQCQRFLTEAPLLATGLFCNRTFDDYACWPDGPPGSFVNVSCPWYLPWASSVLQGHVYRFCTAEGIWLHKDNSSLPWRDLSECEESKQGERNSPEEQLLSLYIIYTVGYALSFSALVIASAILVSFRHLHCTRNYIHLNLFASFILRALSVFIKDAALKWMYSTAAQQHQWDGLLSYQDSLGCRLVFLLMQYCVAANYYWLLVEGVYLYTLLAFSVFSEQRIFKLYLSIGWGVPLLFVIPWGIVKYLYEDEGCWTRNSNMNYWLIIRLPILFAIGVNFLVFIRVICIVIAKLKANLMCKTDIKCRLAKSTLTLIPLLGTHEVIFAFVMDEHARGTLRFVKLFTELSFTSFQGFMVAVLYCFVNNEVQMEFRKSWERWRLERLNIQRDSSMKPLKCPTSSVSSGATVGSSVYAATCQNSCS
Experimental: The cells were maintained in sterile 10 cm^2 tissue culture Petri dishes (Greiner Bio-one, Stonehouse, UK) by changing the FSM every 3–4 days and sub-culturing when they reached 100% confluency. Diabetic and recovered INS-1E cells were generated using a previously described method with some changes [41]. To produce ‘diabetic’ INS-1E cells, when healthy INS-1E cells reached >80% confluency, they were maintained in FSM containing high glucose (40 mM) for 4 weeks by changing the medium with high glucose every 3–4 days. To produce ‘recovered’ cells, the healthy cells were cultured initially in FSM containing 40 mM glucose (diabetic condition) for 4 weeks and then in FSM containing 11 mM glucose for 4 weeks. […]
The intracellular cAMP contents of the INS-1E cells during the treatments was measured using a cAMP ELISA. […]
For the ELISA, an anti-rabbit antibody (Genscript, Oxford, UK) diluted to 10 μg/mL in 100 mM NaHCO3 buffer (pH 9.6) was used to coat the wells (50 μL per well) of a 96-well plate overnight at 4 °C. […] The reaction was stopped after 5 min with 50 μL of 2M sulfuric acid, then its optical density was read at 450 nm (OD450) using a plate reader. Using known cAMP standards, the cAMP contents of the samples were determined.

GLP-1R [6] = target: T1, GLP-1R; test: Glucose-stimulated insulin secretion (GSIS), insulin ELISA, INS-1E cells; assay type: cell-based; details: 10 μM, 15 mM glucose, n = 3
Experimental: The cells were maintained in sterile 10 cm^2 tissue culture Petri dishes (Greiner Bio-one, Stonehouse, UK) by changing the FSM every 3–4 days and sub-culturing when they reached 100% confluency. Diabetic and recovered INS-1E cells were generated using a previously described method with some changes [41]. To produce ‘diabetic’ INS-1E cells, when healthy INS-1E cells reached >80% confluency, they were maintained in FSM containing high glucose (40 mM) for 4 weeks by changing the medium with high glucose every 3–4 days. To produce ‘recovered’ cells, the healthy cells were cultured initially in FSM containing 40 mM glucose (diabetic condition) for 4 weeks and then in FSM containing 11 mM glucose for 4 weeks. […] Unless otherwise specified, all incubations of the cells in the following assays were carried out in a humid incubator at 37 °C and 5% CO2, and all of the ELISAs were carried out at room temperature (RT).
For the ELISA, the wells of 96-well plate inserts were coated with 50 μL of 3 μg/mL captured antibody (Novus Biologicals, Abingdon, UK) diluted in PBS for 2 h at 37 °C and then washed four times with PBST. The antibody-coated wells were then blocked for 1 h with 150 μL of blocking buffer (5% fish gelatin made in PBST). Samples of 50 μL of samples were added to the capture antibody-coated wells in duplicate and incubated overnight at 4 °C. The wells were then washed five times with PBST and incubated with 50 μL of HRP-conjugated detection antibody (Abcam; diluted 1/10,000 in dilution buffer) for 2 h. The wells were washed again five times with PBST and incubated with 50 μL of Ultra TMB substrate (Thermo Fisher Scientific, Loughborough, UK) for 5 min. The reaction was stopped by adding an equal volume of 2M sulfuric acid, then its optical density was read at 450 nm (OD450) using a plate reader. Using known insulin standards (Abcam, Cambridge, UK), the insulin concentrations of samples were determined.

human islets = system: human islets; parameters: method as in PMID 20823098; details: human islets isolated from a donor with T2D; cited from earlier work

Row | GSIS at 48 h, 72 h and 96 h (GLP-1R [6]; diabetic INS-1E) | GSIS at 48 h, 72 h and 96 h (GLP-1R [6]; healthy and recovered INS-1E) | Molecule | time after which augmentation of GSICP was lost (INS-1E cells [1]) [h] | intracellular cAMP (GSICP) versus allosteric agonists (INS-1E cells [1]) | time after which augmentation of GSIS was lost (INS-1E cells [2]) [h] | augmentation of GSIS versus allosteric agonists (INS-1E cells [2]) | other results
1 |  |  | C=C[C@@]1(C)CC(=O)[C@]2(O)[C@@]3(C)[C@@H](O)CCC(C)(C)[C@@H]3[C@H](O)[C@H](OC(C)=O)[C@@]2(C)O1 [forskolin] | 12 | raised intracellular cAMP levels | 12 | augmented GSIS to similar levels | 
2 |  |  | GLP-1: hormone secreted into the circulation by intestinal L-cells in response to food intake |  |  |  |  | half-life [3]: short half-life; G-protein pathway activation via GLP-1R (GLP-1R [4]): activation of both the Gαs and Gαq pathways
3 | significantly boosted GSIS | slightly increased GSIS | CC[S+]([O-])c1nc(-c2cccc(OCc3ccccc3)c2)cc(C(F)(F)F)n1 (centres unmarked) [Compound B, 4-(3-(benzyloxy)phenyl)-2-(ethylsulfinyl)-6-(trifluoromethyl)-pyramidine] |  |  |  |  | GSICP, 8 mM glucose preincubation (GLP-1R [5]): boosted GSCIP to a greater extent; insulin secretion (human islets): near-normal levels
4 |  |  | CC(C)Cn1c(=O)n(C)c(=O)c2[nH]cnc21 [IBMX, Isobutylmethylxanthine] | 12 | raised intracellular cAMP levels | 12 | augmented GSIS to similar levels | 
5 |  |  | CCCCCCCCCCCCCCCC(=O)N[C@@H](CCC(=O)NCCCC[C@H](NC(=O)[C@H](C)NC(=O)[C@H](C)NC(=O)[C@H](CCC(N)=O)NC(=O)CNC(=O)[C@H](CCC(=O)O)NC(=O)[C@H](CC(C)C)NC(=O)[C@H](Cc1ccc(O)cc1)NC(=O)[C@H](CO)NC(=O)[C@H](CO)NC(=O)[C@@H](NC(=O)[C@H](CC(=O)O)NC(=O)[C@H](CO)NC(=O)[C@@H](NC(=O)[C@H](Cc1ccccc1)NC(=O)[C@@H](NC(=O)CNC(=O)[C@H](CCC(=O)O)NC(=O)[C@H](C)NC(=O)[C@@H](N)Cc1cnc[nH]1)[C@@H](C)O)[C@@H](C)O)C(C)C)C(=O)N[C@@H](CCC(=O)O)C(=O)N[C@@H](Cc1ccccc1)C(=O)N[C@H](C(=O)N[C@@H](C)C(=O)N[C@@H](Cc1c[nH]c2ccccc12)C(=O)N[C@@H](CC(C)C)C(=O)N[C@H](C(=O)N[C@@H](CCCNC(=N)N)C(=O)NCC(=O)N[C@@H](CCCNC(=N)N)C(=O)NCC(=O)O)C(C)C)[C@@H](C)CC)C(=O)O [Liraglutide] |  |  |  |  | resistance to DPP-IV [3]: resistant to breakdown by DPP-IV
6 | significantly boosted GSIS | slightly increased GSIS | CC(C)(C)Nc1nc2cc(Cl)c(Cl)cc2nc1S(C)(=O)=O [Compound 2, 6,7-dichloro-2-methylsulfonyl-3-N-tert-butylaminoquinoxaline] |  |  |  |  | 
